Data as given in patent publication US10875844B2, “Salicylate inhibitors of MELK and methods of use” (priority 2015, dated 2020).

Biological target: T1, MELK (Homo sapiens, UniProt Q14680)
T1 construct: purchased Life Technologies
Assay: Z′-LYTE biochemical assay (Life Technologies), MELK inhibition
Method: The invention also provides methods for inhibiting MELK, comprising contacting MELK with a compound of the invention in an amount effective to inhibit MELK. In certain embodiments, the method is conducted in vitro. In certain embodiments, the method is conducted in vivo. Inhibition of MELK can be determined by the Z′-LYTE® biochemical assay from Life Technologies (Life Technologies Z′-LYTE® Screening Protocol and Assay Conditions, June 2012, incorporated herein by reference).
The following compounds were made according to the general scheme shown in Example 1. IC50 against MELK was determined by Z′-LYTE® biochemical assay at 25 uM ATP concentration, and are measured in nM.

T1 sequence (Q14680 whole entry): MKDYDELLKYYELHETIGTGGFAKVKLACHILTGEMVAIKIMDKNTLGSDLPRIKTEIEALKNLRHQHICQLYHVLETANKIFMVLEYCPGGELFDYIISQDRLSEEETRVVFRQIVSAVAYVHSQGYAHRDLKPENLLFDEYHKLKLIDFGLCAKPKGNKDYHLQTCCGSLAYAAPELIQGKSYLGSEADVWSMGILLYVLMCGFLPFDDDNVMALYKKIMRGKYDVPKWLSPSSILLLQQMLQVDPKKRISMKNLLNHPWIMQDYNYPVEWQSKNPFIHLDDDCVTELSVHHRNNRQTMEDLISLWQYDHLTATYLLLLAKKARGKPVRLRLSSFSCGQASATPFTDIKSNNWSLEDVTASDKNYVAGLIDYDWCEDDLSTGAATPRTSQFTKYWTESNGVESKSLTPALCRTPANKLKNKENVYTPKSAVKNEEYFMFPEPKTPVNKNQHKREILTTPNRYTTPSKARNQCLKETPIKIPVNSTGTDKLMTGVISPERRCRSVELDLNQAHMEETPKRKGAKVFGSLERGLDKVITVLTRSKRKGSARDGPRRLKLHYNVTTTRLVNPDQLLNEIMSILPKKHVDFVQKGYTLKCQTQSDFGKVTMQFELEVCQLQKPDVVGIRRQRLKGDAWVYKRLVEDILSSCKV

| Compound | IC50 [µM] |
| --- | --- |
| O=C(Nc1ccccc1)c1ccc(-c2cn[nH]c2)cc1OCc1ccccc1 | 1.16 |
| O=C(Nc1ccc2c(c1)CCNCC2)c1ccc(-c2cn[nH]c2)cc1OC1Cc2ccccc2C1 | 0.00105 |
| O=C(Nc1ccc2c(c1)CCNCC2)c1ccc(-c2cn[nH]c2)cc1OC1CCCCC1 | 0.00299 |
| O=C(Nc1ccc2c(c1)CCNCC2)c1ccc(-c2cn[nH]c2)cc1OCC1CCCCC1 | 0.00548 |
| O=C(Nc1ccc2c(c1)CCNCC2)c1ccc(-c2cn[nH]c2)cc1OCc1cccnc1 | 0.0162 |
| O=C(Nc1ccc2c(c1)CCNCC2)c1ccc(-c2cn[nH]c2)cc1OC(CN1CCCC1)c1ccccc1 (centres unmarked) | 0.213 |
| O=C(Nc1ccc2c(c1)CCNCC2)c1ccc(-c2cn[nH]c2)cc1OCCN1CCCC1 | 0.0751 |
| O=C(Nc1ccc2c(c1)CCNCC2)c1ccc(-c2cn[nH]c2)cc1OCCN1CCCC1=O | 0.0806 |
| O=C(Nc1ccc2c(c1)CCNCC2)c1ccc(-c2cn[nH]c2)cc1OCCN1CCOCC1 | 0.0853 |
| O=C(Nc1ccc2c(c1)CCNCC2)c1ccc(-c2cn[nH]c2)cc1O | 0.0688 |
| O=C(Nc1ccc2c(c1)CCNCC2)c1ccc(-c2cn[nH]c2)cc1OCc1ccccc1 [Compound 02-102, 2-(benzyloxy)-4-(1H-pyrazol-4-yl)-N-(2,3,4,5-tetrahydro-1H-benzo[d]azepin-7-yl)benzamide] | 0.00217 |
| O=C(Nc1cccc2c1CCNCC2)c1ccc(-c2cn[nH]c2)cc1OCc1ccccc1 [Compound 02-103] | 0.134 |
| O=C(Nc1ccc2c(c1)CCNCC2)c1ccc(-c2cc(Cl)c(O)c(Cl)c2)cc1OCc1ccccc1 [Compound 02-104, 3-(benzyloxy)-3′,5′-dichloro-4′-hydroxy-N-(2,3,4,5-tetrahydro-1H-benzo[d]azepin-7-yl)-[1,1′-biphenyl]-4-carboxamide] | 0.00192 |
| CC(=O)N1CCc2ccc(NC(=O)c3ccc(-c4cn[nH]c4)cc3OCc3ccccc3)cc2CC1 [Compound 02-111, N-(3-acetyl-2,3,4,5-tetrahydro-1H-benzo[d]azepin-7-yl)-2-(benzyloxy)-4-(1H-pyrazol-4-yl)benzamide] | 0.0606 |
